According to ChEMBL document CHEMBL1122468, “Synthesis of (7R)-7H-indolo[3,4-gh][1,4]benzoxazines, a new class of D-heteroergolines with dopamine agonist activity” (J Med Chem, 1983):

How the values were obtained:
[1] = target: Dopamine receptor; assay: In vitro affinity for dopamine receptor by displacement of [3H]- apomorphine in rat striatal membranes; assay type: cell membranes, Membrane
[2] = test system: Rattus norvegicus; assay: In vivo measure of dopaminergic activity by the induction of contralateral turning behavior in 6-hydroxydopamine (6-OHDA) lesioned rats, ip; assay type: functional
[3] = target: T1, Cerebral cortex alpha adrenergic receptor (Bos taurus, UniProt Q28838+P18130); assay: In vitro affinity for alpha adrenergic receptor by displacement of 3[H]clonidine in calf cerebral cortex; assay type: tissue-based
T1 sequence (Q28838 whole entry): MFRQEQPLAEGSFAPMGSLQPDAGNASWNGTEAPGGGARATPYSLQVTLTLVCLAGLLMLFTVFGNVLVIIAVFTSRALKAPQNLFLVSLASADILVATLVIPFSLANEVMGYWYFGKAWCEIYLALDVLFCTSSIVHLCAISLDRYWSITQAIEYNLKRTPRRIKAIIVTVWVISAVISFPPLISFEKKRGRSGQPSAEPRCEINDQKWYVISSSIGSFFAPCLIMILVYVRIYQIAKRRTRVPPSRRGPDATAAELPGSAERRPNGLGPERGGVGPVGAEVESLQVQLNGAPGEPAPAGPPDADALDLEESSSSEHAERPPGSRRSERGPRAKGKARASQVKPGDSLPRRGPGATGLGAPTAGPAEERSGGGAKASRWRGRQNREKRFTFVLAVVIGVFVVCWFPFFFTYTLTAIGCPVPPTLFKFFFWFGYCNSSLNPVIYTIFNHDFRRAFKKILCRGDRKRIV
T1 sequence (P18130 whole entry): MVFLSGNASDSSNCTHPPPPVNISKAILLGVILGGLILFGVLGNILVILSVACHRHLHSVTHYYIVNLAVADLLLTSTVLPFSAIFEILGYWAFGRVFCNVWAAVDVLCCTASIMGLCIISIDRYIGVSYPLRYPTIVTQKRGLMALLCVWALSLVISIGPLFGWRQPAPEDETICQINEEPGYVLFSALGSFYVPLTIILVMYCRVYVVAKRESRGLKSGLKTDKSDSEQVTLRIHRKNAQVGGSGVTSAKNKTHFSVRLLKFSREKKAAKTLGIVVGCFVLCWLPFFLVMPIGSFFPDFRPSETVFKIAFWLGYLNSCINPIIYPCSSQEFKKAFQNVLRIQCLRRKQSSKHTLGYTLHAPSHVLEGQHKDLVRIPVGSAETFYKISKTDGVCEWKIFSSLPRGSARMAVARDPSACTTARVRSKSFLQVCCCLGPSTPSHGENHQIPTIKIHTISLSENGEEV

[4] = Rattus norvegicus, ip, read-out: ED50

Row | Compound | IC50 [1] | ED50 [2, 4] | IC50 [3] | ED50 [2]
1 | c1cc2c3c(c[nH]c3c1)C[C@H]1NCCO[C@H]21 | 59.6 nM | 0.76 mg/kg | 55 nM | –
2 | CN1CCO[C@@H]2c3cccc4[nH]cc(c34)C[C@H]21 | 28.9 nM | 0.18 mg/kg | 27 nM | –
3 | CCCCN1CCO[C@@H]2c3cccc4[nH]cc(c34)C[C@H]21 | 33 nM | 1.1 mg/kg | 46 nM | –
4 | C=CCN1CCO[C@@H]2c3cccc4[nH]cc(c34)C[C@H]21 | 23 nM | 0.15 mg/kg | 206 nM | –
5 | CCCN1CCO[C@@H]2c3cccc4[nH]cc(c34)C[C@H]21 | 2.2 nM | 0.028 mg/kg | 31 nM | –
6 | CCN1CCO[C@@H]2c3cccc4[nH]cc(c34)C[C@H]21 (relative stereo) | 1240 nM | – | 1354 nM | >5 mg/kg
7 | CCN1CCO[C@@H]2c3cccc4[nH]cc(c34)C[C@H]21 (stereo in doubt; 6b) | 4.65 nM | – | 15 nM | 0.09 mg/kg
8 | CCN1CCO[C@@H]2c3cccc4[nH]cc(c34)C[C@H]21 (stereo in doubt; (+)6b) | 219 nM | – | 34 nM | 7.5 mg/kg
9 | CCN1CCO[C@@H]2c3cccc4[nH]cc(c34)C[C@H]21 (stereo in doubt; (-)6b) | 2 nM | – | 7 nM | 0.027 mg/kg
10 | CC(C)C[C@H]1C(=O)N2CCC[C@H]2[C@]2(O)O[C@](NC(=O)[C@@H]3C=C4c5cccc6[nH]c(Br)c(c56)C[C@H]4N(C)C3)(C(C)C)C(=O)N12 [BROMOCRIPTINE] | – | 2.8 mg/kg | – | –
11 | CCCN1C[C@H](CSC)C[C@@H]2c3cccc4[nH]cc(c34)C[C@H]21 [PERGOLIDE] | – | 0.1 mg/kg | – | –
